Reference: ChEMBL document CHEMBL5465560, “Selectivity Literature for EUbOPEN Chemogenomic Library” (2024)
Blank lines part the entries; values can stand above or below the compound they belong to.

Key:
Conditions in all cases: at 1 µM
[1] = biological target: NT-3 growth factor receptor (Homo sapiens, UniProt Q16288); test: Selectivity interaction (SelectScreen kinase panel (Invitrogen)) EUB0000133b NTRK3
[2] = biological target: Calcium/calmodulin-dependent protein kinase type II subunit alpha (Homo sapiens, UniProt Q9UQM7); test: Selectivity interaction (SelectScreen kinase panel (Invitrogen)) EUB0000133b CAMK2A
Ephrin type-A receptor 4 = Ephrin type-A receptor 4 (Homo sapiens, UniProt P54764); test: Selectivity interaction (SelectScreen kinase panel (Invitrogen)) EUB0000133b EPHA4
Ephrin type-A receptor 4, sequence (P54764 whole entry): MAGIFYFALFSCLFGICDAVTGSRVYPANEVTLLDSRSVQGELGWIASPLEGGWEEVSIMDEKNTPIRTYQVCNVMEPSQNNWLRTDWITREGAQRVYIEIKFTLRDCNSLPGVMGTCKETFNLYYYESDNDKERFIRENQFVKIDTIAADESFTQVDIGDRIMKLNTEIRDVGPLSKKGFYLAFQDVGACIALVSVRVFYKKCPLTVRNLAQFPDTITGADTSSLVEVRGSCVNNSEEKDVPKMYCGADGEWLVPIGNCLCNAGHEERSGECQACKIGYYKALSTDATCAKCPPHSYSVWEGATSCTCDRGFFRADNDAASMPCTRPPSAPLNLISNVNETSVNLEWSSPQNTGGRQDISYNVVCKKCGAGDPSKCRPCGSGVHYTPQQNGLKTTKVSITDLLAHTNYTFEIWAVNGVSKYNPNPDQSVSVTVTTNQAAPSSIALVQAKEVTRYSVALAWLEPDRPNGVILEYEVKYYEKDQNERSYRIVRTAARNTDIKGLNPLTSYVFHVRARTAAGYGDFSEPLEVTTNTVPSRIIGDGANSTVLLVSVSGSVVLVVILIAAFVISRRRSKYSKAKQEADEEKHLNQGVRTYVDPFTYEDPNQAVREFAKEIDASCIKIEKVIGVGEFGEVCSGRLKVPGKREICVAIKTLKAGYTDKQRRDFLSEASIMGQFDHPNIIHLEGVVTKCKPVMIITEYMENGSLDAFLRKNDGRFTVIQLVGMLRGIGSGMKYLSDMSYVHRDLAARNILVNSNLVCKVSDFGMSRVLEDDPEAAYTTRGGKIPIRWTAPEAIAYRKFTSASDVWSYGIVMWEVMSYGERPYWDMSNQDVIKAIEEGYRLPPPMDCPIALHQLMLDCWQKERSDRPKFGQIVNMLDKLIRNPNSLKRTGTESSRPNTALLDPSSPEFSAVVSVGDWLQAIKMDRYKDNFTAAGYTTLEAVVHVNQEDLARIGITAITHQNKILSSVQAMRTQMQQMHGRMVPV

[3] = biological target: MAP kinase-activated protein kinase 3 (Homo sapiens) (UniProt Q16644); test: Selectivity interaction (SelectScreen kinase panel (Invitrogen)) EUB0000133b MAPKAPK3
MAP kinase-activated protein kinase 3 (Homo sapiens), sequence (Q16644 whole entry, looked up): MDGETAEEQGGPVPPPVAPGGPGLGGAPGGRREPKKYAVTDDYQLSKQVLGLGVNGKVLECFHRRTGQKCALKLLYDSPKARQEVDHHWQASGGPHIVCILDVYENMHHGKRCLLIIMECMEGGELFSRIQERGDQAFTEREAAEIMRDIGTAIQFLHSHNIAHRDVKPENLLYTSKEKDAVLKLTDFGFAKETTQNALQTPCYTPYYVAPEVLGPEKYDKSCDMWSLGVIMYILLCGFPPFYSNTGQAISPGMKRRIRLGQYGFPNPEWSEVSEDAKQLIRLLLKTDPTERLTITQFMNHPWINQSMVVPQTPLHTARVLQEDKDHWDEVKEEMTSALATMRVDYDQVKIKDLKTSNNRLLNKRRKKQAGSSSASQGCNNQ

[4] = biological target: Tyrosine-protein kinase Blk (Homo sapiens) (UniProt P51451); test: Selectivity interaction (SelectScreen kinase panel (Invitrogen)) EUB0000133b BLK
[5] = biological target: Tyrosine-protein kinase Fgr (Homo sapiens) (UniProt P09769); test: Selectivity interaction (SelectScreen kinase panel (Invitrogen)) EUB0000133b FGR
[6] = biological target: Fibroblast growth factor receptor 2 (Homo sapiens) (UniProt P21802); test: Selectivity interaction (SelectScreen kinase panel (Invitrogen)) EUB0000133b FGFR2
[7] = biological target: Ephrin type-A receptor 2 (Homo sapiens) (UniProt P29317); test: Selectivity interaction (SelectScreen kinase panel (Invitrogen)) EUB0000133b EPHA2
[8] = biological target: Vascular endothelial growth factor receptor 2 (Homo sapiens, UniProt P35968)
Vascular endothelial growth factor receptor 2, sequence (P35968 whole entry): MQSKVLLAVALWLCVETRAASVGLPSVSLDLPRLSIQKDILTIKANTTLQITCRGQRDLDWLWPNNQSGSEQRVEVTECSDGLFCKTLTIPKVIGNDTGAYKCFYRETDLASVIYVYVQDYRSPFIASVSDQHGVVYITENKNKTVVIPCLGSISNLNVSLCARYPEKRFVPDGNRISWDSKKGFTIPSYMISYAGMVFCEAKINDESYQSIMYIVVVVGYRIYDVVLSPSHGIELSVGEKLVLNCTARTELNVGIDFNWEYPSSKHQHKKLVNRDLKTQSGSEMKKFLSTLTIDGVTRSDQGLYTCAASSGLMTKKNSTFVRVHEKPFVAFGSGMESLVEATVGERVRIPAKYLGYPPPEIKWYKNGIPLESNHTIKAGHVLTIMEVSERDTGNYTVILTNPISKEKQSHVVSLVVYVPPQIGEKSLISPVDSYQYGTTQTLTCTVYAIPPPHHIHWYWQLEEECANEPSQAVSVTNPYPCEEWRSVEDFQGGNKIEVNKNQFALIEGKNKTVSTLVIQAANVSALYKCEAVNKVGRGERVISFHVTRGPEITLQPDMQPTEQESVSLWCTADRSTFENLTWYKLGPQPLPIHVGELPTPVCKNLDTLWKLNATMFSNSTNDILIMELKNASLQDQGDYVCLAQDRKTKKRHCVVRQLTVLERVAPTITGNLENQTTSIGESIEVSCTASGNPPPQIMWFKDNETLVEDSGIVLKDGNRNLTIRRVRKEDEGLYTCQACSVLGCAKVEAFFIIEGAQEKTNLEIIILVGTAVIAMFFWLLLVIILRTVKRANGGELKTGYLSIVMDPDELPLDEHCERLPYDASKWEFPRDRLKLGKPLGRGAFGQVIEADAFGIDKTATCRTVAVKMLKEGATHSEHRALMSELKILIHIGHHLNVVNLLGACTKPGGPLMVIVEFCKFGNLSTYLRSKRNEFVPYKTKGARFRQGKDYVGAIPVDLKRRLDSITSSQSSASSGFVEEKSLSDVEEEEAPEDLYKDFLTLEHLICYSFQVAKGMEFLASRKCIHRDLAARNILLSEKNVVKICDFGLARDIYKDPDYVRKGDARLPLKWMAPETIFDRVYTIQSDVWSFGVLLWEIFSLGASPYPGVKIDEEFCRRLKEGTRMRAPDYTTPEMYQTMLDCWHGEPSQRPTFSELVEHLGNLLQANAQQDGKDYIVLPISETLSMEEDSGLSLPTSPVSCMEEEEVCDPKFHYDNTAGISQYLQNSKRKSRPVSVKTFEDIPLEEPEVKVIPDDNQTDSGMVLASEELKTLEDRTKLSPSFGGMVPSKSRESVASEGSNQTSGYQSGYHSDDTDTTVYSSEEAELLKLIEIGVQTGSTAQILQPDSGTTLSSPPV

Misshapen-like kinase 1 = Misshapen-like kinase 1 (Homo sapiens, UniProt Q8N4C8)
[9] = biological target: Vascular endothelial growth factor receptor 3 (Homo sapiens, UniProt P35916)
[10] = biological target: Mitogen-activated protein kinase kinase kinase kinase 4 (Homo sapiens, UniProt O95819)
[11] = biological target: Receptor-interacting serine/threonine-protein kinase 2 (Homo sapiens, UniProt O43353)
[12] = biological target: Platelet-derived growth factor receptor alpha (Homo sapiens, UniProt P16234)
Platelet-derived growth factor receptor alpha, sequence (P16234 whole entry): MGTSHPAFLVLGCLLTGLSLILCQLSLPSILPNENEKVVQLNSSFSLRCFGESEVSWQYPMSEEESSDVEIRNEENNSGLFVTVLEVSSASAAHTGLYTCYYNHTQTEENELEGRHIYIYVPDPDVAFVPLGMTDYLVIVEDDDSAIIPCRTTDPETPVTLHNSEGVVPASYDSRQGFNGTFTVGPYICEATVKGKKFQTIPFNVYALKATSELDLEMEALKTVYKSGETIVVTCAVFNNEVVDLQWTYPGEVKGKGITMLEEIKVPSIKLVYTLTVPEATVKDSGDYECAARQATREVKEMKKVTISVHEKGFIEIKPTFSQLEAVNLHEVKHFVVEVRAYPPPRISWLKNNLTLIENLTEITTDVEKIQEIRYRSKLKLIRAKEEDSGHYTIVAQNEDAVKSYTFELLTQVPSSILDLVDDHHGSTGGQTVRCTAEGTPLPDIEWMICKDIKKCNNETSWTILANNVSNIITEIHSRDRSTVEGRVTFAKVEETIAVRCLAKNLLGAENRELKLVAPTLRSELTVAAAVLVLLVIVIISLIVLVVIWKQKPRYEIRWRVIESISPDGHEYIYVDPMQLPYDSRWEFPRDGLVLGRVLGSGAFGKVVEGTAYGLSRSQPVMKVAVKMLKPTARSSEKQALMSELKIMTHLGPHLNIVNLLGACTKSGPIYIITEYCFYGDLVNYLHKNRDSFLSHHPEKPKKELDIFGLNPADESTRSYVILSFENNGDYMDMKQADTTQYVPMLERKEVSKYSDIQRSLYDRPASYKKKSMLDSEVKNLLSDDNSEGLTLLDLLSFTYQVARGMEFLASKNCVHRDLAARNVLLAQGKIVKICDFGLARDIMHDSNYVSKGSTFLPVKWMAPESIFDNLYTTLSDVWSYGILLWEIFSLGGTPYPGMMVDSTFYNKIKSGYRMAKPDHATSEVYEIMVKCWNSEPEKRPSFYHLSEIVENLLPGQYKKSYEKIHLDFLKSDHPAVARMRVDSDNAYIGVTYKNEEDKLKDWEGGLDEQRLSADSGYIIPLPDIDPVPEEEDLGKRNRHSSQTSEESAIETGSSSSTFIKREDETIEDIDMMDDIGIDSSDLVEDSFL

[13] = tested on: Platelet-derived growth factor receptor alpha (Homo sapiens), P16234 [V561D]
Platelet-derived growth factor receptor alpha (Homo sapiens), P16234 [V561D], sequence (P16234 whole entry V561D): as the sequence (P16234 whole entry) above, with V561D counted along it

[14] = biological target: Vascular endothelial growth factor receptor 1 (Homo sapiens) (UniProt P17948)
[15] = biological target: RAF proto-oncogene serine/threonine-protein kinase (Homo sapiens) (UniProt P04049)

NT-3 growth factor receptor, sequence (Q16288 32-839 limits assumed): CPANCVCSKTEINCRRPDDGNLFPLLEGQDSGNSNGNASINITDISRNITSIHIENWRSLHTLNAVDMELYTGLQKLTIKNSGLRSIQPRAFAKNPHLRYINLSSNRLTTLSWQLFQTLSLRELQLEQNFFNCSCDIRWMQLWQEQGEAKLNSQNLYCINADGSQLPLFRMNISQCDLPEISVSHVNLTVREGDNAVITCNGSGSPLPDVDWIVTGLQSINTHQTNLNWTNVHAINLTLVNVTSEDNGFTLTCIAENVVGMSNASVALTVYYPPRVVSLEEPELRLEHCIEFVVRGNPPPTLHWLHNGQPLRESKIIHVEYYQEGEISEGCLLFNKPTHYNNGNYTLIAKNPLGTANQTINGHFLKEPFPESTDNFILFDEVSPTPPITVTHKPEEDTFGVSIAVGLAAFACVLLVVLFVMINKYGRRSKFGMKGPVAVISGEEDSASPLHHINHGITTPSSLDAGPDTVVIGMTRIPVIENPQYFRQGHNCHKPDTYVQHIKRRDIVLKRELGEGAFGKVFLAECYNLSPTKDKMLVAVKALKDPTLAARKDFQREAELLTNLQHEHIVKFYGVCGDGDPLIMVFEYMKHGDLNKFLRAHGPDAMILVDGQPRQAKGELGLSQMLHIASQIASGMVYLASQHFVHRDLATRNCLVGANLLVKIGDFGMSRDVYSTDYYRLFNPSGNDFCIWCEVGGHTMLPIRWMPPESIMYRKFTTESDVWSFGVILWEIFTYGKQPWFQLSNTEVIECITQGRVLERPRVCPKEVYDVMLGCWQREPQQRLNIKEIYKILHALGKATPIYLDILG

% of inhibition [1]: 91%
% of inhibition [2]: 95%
% of inhibition (Ephrin type-A receptor 4): 94%
% of inhibition [3]: 91%
% of inhibition [4]: 92%
% of inhibition [5]: 97%
% of inhibition [6]: 90%
% of inhibition [7]: 100%
SMILES: COc1cc(Nc2ncc3c(n2)-c2ccc(Cl)cc2C(c2c(F)cccc2OC)=NC3)ccc1C(=O)O

% of residual activity [8]: 11%
% of residual activity (Misshapen-like kinase 1): 21%
% of residual activity [9]: 28%
% of residual activity [10]: 41%
% of residual activity [11]: 7%
% of residual activity [12]: 47%
% of residual activity [13]: 43%
% of residual activity [14]: 38%
SMILES: Cc1cccc(-c2[nH]c(CNc3ccccc3F)nc2-c2ccc3ncnn3c2)n1

% of control [15]: 8%
SMILES: OCCn1cc(-c2ccc3c(c2)CCC3=NO)c(-c2ccncc2)n1
